In one assay the target is T1, BRD4(1) (Homo sapiens, UniProt O60885).
T1 construct: BRD4(1) (amino acids 44-168); made in house; host or cells: E. coli
Kind of assay: Binding assay BRD4/acetylated peptide H4 (TR-FRET/HTRF protein-protein interaction assay). The settings on record: inhibition of interaction BRD4(1) / acetylated histone H4 peptide, TR-FRET. An excerpt:
Binding Assay BRD4/Acetylated Peptide H4 (“PRQ”)
To assess the BRD4 binding strength of the substances described in this application, their capacity for dose-dependent inhibition of the interaction between BRD4 and acetylated histone H4 was quantified.
For this purpose, a time-resolved fluorescence resonance energy transfer (TR-FRET) assay was used, which measures the binding between N-terminally His6-tagged BRD4(1) (amino acids 44-168) and a synthetic acetylated histone H4 (Ac-H4) peptide with the sequence GRGK(Ac)GGK(Ac)GLGK(Ac)GGAK(Ac)RHGSGSK-biotin. The recombinant BRD4 protein (produced in-house) was expressed in E. coli and was purified by (Ni-NTA) affinity chromatography and (Sephadex G-75) size-exclusion chromatography. The Ac-H4 peptide can be purchased for example from Biosyntan (Berlin, Germany).
In the assay, typically 11 different concentrations of each substance (0.1 nM, 0.33 nM, 1.1 nM, 3.8 nM, 13 nM, 44 nM, 0.15 μM, 0.51 μM, 1.7 μM, 5.9 μM and 20 μM) were measured as duplicates on the same microtitre plate. For this, 100-fold concentrated solutions in DMSO were prepared by serial dilutions (1:3.4) of a 2 mM stock solution in a clear, 384-well microtitre plate (Greiner Bio-One, Frickenhausen, Germany). From this, 50 nl was transferred to a black assay plate (Greiner Bio-One, Frickenhausen, Germany). The assay was started by supplying 2 μl of a 2.5-fold concentrated BRD4 solution (usually 10 to 50 nM final concentration in the 5 μl of the reaction volume) in aqueous assay buffer [50 mM HEPES pH 7.5, 50 mM sodium chloride (NaCl), 0.25 mM CHAPS and 0.05% serum albumin (BSA)] to the substances in the assay plate. This was followed by a 10-minute incubation step at 22° C. for the pre-equilibration of putative complexes between BRD4 and the substances.
The mixture was then incubated in the dark for one hour at 22° C. and then overnight at 4° C. The formation of BRD4/Ac-H4 complexes was determined by measuring the resonance energy transfer from the streptavidin-Eu-cryptate to the anti-6His-XL665 antibody that is present in the reaction. For this, the fluorescence emissions at 620 nm and 665 nm were measured after excitation at 330-350 nm in a TR-FRET measuring instrument, e.g. a Rubystar or Pherastar (both from BMG Lab Technologies, Offenburg, Germany) or a Viewlux (Perkin-Elmer). The ratio of the emissions at 665 nm and at […] was taken as an indicator of the amount of BRD4/Ac-H4 complexes formed.
The data obtained (ratio) were normalized, wherein 0% inhibition corresponded to the mean value from the measured values of a set of controls (usually 32 data points), in which all reagents were contained. 50 nl DMSO (100%) was used instead of test substances. Inhibition of 100% corresponded to the mean value from the measured values of a set of controls (usually 32 data points), in which all reagents except BRD4 were contained. The IC50 value was determined by regression analysis based on a 4-parameter equation (minimum, maximum, IC50, Hill; Y=Max+(Min−Max)/(1+(X/IC50)^Hill)) using Bayer's own analysis software.
(In general: Time-resolved FRET reads energy transfer from a long-lived donor to a nearby acceptor.)

In another assay the test system is MOLM-13 cells. Kind of assay: Cellular proliferation assay (alamarBlue) MOLM-13. The assay is classed as cell-based. The note with it: Homo sapiens, 96 hours, read-out: Leukaemia MOLM-13 IC50. Here is the method: (§1) In accordance with the invention, the ability of the substances to inhibit the proliferation of various cell lines was determined. Cell viability was determined by means of the alamarBlue® reagent (Invitrogen). […] After incubation overnight at 37° C., the fluorescence values were determined (CI values). […] Then the fluorescence values were determined (CO values).
(§2) The substances were investigated in the cell lines in Table 1, which for example represent the stated indications: […]
(The colour change of resazurin is a common sign of viable cells or microbes.)

In a further assay the test system is LAPC-4 cells. As to the kind of experiment: Cellular proliferation assay (alamarBlue) LAPC-4. The format is cell-based. The note with it: Homo sapiens, LAPC4, 168 hours, read-out: Prostate LAPC-4 IC50. Here is the method: as §1, §2
A further assay relates to VCaP cells. As to the kind of experiment: Cellular proliferation assay (alamarBlue) VCaP. The format is cell-based. The settings on record: Homo sapiens, 168 hours, read-out: Prostate VCaP IC50. Here is the method:
as §1, §2

For the next assay, the system named is LNCaP cells. As to the kind of experiment: Cellular proliferation assay (alamarBlue) LNCaP. The format is cell-based. The settings on record: Homo sapiens, 168 hours, read-out: Prostate LNCaP IC50. Here is the method: as §1, §2
The test system of the next assay is MCF-7 cells. As to the kind of experiment: Cellular proliferation assay (alamarBlue) MCF-7. The assay is classed as cell-based. The note with it: Homo sapiens, MCF7, 96 hours, read-out: Breast MCF-7 IC50. Here is the method: as §1, §2
The subject of another assay is MDA-MB-231 cells. Kind of assay: Cellular proliferation assay (alamarBlue) MDA-MB-231. The format is cell-based. The note with it: Homo sapiens, 96 hours, read-out: Breast MDA-MB-231 IC50. Here is the method:
as §1, §2

The next assay deals with HeLa-MaTu cells. Kind of assay: Cellular proliferation assay (alamarBlue) HeLa-MaTu. The format is cell-based. The settings on record: 96 hours, read-out: Cervix HeLa-MaTu IC50. Here is the method:
as §1, §2

Another assay concerns B16F10 cells. Kind of assay: Cellular proliferation assay (alamarBlue) B16F10. The assay is classed as cell-based. The settings on record: Mus musculus, B16-F10, 96 hours, read-out: Melanoma B16F10 IC50. Here is the method: as §1, §2
A further assay deals with MOLP-8 cells. As to the kind of experiment: Cellular proliferation assay (alamarBlue) MOLP-8. The settings on record: Homo sapiens, 120 hours, read-out: Multiple myeloma MOLP-8 IC50. The assay is classed as cell-based. Here is the method: as §1, §2

By IC50 is commonly meant the concentration needed to halve the response being measured. On to `Cc1sc2c(c1C)C(c1ccc(Cl)cc1)=N[C@@H](CC(=O)N1CCC3(COC3)C1)c1nnc(C)n1-2` [Example 6, 2-[(S)-4-(4-Chlorophenyl)-2,3,9-trimethyl-6H-thieno[3,2-f][1,2,4]triazolo[4,3-a][1,4]diazepin-6-yl]-1-(2-oxa-6-azaspiro[3.4]oct-6-yl)ethan-1-one], for which the IC50 at BRD4(1) worked out at 0.029 µM; with MOLM-13 cells, 0.131 µM; with LAPC-4 cells, 0.072 µM; with VCaP cells, 0.065 µM; with LNCaP cells it was 0.036 µM; in the assay with MCF-7 cells it was 0.098 µM. Besides, the IC50 was 0.122 µM in the assay on MDA-MB-231 cells, 0.251 µM in the assay with HeLa-MaTu cells, 0.087 µM in the assay with B16F10 cells and 0.11 µM with MOLP-8 cells.

For the compound `Cc1sc2c(c1C)C(c1ccc(Cl)cc1)=N[C@@H](CC(=O)NC1C[C@H]3CCC[C@@H](C1)N3C(=O)OC(C)(C)C)c1nnc(C)n1-2` (stereo partly drawn) [Example 3, (1R,5S)-tert-Butyl-3-({2-[(S)-4-(4-chlorophenyl)-2,3,9-trimethyl-6H-thieno[3,2-f][1,2,4]triazolo[4,3-a][1,4]diazepin-6-yl]acetyl}amino)-9-azabicyclo[3.3.1]nonane-9-carboxylate], the IC50 at BRD4(1) came to 0.24 µM; in the assay on MOLM-13 cells, 0.083 µM; in the assay on LAPC-4 cells it was 0.041 µM; in the assay with VCaP cells, 0.065 µM; with LNCaP cells, 0.017 µM; in the assay with MCF-7 cells, 0.02 µM. The IC50 in the assay with MDA-MB-231 cells stood at 0.129 µM; in the assay with HeLa-MaTu cells it was 0.04 µM; in the assay with B16F10 cells, 0.029 µM; with MOLP-8 cells, 0.17 µM.

On to `Cc1sc2c(c1C)C(c1ccc(Cl)cc1)=N[C@@H](CC(=O)NC1C[C@H]3CCC[C@@H](C1)N3)c1nnc(C)n1-2` (stereo partly drawn) [Example 4, N-[(1R,5S)-9-Azabicyclo[3.3.1]non-3-yl]-2-[(S)-4-(4-chlorophenyl)-2,3,9-trimethyl-6H-thieno[3,2-f][1,2,4]triazolo[4,3-a][1,4]diazepin-6-yl]acetamide], for which the IC50 at BRD4(1) stood at 0.015 µM; with MOLM-13 cells, 0.057 µM; in the assay with LAPC-4 cells, 0.228 µM; with VCaP cells it was 0.071 µM; in the assay on LNCaP cells, 0.353 µM; with MCF-7 cells it was 0.3 µM. Also, the IC50 with MDA-MB-231 cells was found to be 0.604 µM; in the assay on HeLa-MaTu cells, 0.753 µM; in the assay with B16F10 cells, 1.05 µM; in the assay on MOLP-8 cells, 0.24 µM.

As to `Cc1sc2c(c1C)C(c1ccc(Cl)cc1)=N[C@@H](CC(=O)N1CC3CCC(C1)O3)c1nnc(C)n1-2` [Example 5, 2-[(S)-4-(4-Chlorophenyl)-2,3,9-trimethyl-6H-thieno[3,2-f][1,2,4]triazolo[4,3-a][1,4]diazepin-6-yl]-1-(8-oxa-3-azabicyclo[3.2.1]oct-3-yl)ethan-1-one], the concentration for half-maximal inhibition (IC50) at BRD4(1) is 0.078 µM; in the assay with MOLM-13 cells it was 0.127 µM; with LAPC-4 cells, 0.065 µM; in the assay on VCaP cells it was 0.067 µM; with LNCaP cells, 0.04 µM; with MCF-7 cells it was 0.093 µM. Besides, the IC50 in the assay with MDA-MB-231 cells came to 0.138 µM; with HeLa-MaTu cells, 0.331 µM; in the assay with B16F10 cells, 0.091 µM; in the assay with MOLP-8 cells, 0.12 µM.

For the compound `Cc1sc2c(c1C)C(c1ccc(Cl)cc1)=N[C@@H](CC(=O)N1CC3CCC1CC3)c1nnc(C)n1-2` [Example 8, (S)-1-(2-Azabicyclo[2,2,2]oct-2-yl)-2-[(6S)-4-(4-chlorophenyl)-2,3,9-trimethyl-6H-thieno[3,2-j][1,2,4]triazolo[4,3-a][1,4]diazepin-6-yl]ethanone], the IC50 at BRD4(1) amounted to 0.084 µM; in the assay on MOLM-13 cells, 1.06 µM; with LAPC-4 cells, 0.133 µM; in the assay on MDA-MB-231 cells it was 0.363 µM; in the assay on B16F10 cells it was 0.297 µM.

Turning to `Cc1sc2c(c1C)C(c1ccc(Cl)cc1)=N[C@@H](CC(=O)N1CCC3(CC1)COC3)c1nnc(C)n1-2` [Example 7], the IC50 stood at 0.032 µM on BRD4(1); 0.068 µM in the assay with MOLM-13 cells; 0.032 µM with LAPC-4 cells; 0.035 µM in the assay on VCaP cells; 0.102 µM in the assay on LNCaP cells; 0.059 µM with MCF-7 cells. The half-maximal inhibitory concentration (IC50) with MDA-MB-231 cells amounted to 0.069 µM; in the assay with HeLa-MaTu cells, 0.167 µM; with B16F10 cells it was 0.048 µM; in the assay with MOLP-8 cells it was 0.051 µM.

As for `Cc1sc2c(c1C)C(c1ccc(Cl)cc1)=N[C@@H](CC(=O)N1C3CCC1CC3)c1nnc(C)n1-2` [Example 9, (S)-1-(7-Azabicyclo[2.2.1]hept-7-yl)-2-[(6S)-4-(4-chlorophenyl)-2,3,9-trimethyl-6H-thieno[3,2-f][1,2,4]triazolo[4,3-a][1,4]diazepin-6-yl]ethanone], the 50% inhibitory concentration (IC50) on BRD4(1) was found to be 0.075 µM; in the assay on MOLM-13 cells, 0.838 µM; with LAPC-4 cells, 0.088 µM; with MDA-MB-231 cells it was 0.291 µM; with B16F10 cells, 0.414 µM.

For the origin of these results see patent US20140213575A1, “6H-Thieno[3,2-f][1,2,4]triazolo[4,3-a][1,4]diazepines” (BAYER INTELLECTUAL PROPERTY GMBH, priority 2011, published 2014).
